Reference: US8679765B2, “Methods and compositions for diagnosis and treatment of malignant and non-malignant gammopathies” (Ludwig Institute for Cancer Research Ltd., priority 2009, dated 2014)

Key:
[1] = system: hyperphosphorylation of Paratarg; experiment: Inhibition experiments: LCLs cultured with kinase inhibitors, IEF and immunodetection with anti-STOML2; format: cell-based, human; conditions: IEF analysis; for effect on hyperphosphorylation of paratarg: LCLs of healthy donors or patients
Procedure: LCLs derived from healthy donors or patients were cultured in the presence of the kinase inhibitors at the indicated concentrations. Lysates were analysed by IEF and immunodetected with anti-STOML2. A shown in this figure, hyperphosphorylation is inhibited by staurosporine, ellagic acid and wortmannin. […] Using BIM_I and Rottlerin, PKC isoform delta or zeta could be identified as responsible for hyperphosphorylation. • a) Same as b), but with other concentrations of the inhibitors.
LCLs were established by infection of PBMCs with EBV as described by Neumann et al (Blood 2005; 106:3105-13).
Stably transfected cell lines were cultured in the presence of inhibitory compounds as indicated. After 5 d cells were removed and analysed by IEF and immunodetection.
In MGUS/MM patients and their relatives hyperphosphorylated paratarg is expressed constitutively, while hyperphosphorylation of paratarg is temporary in all healthy persons and cell lines analysed. This was seen by culturing LCLs and cell lines in the presence of kinase or phosphatase inhibitors. The identification of Ser17 as the differential phosphorylation site led to the prediction of a […] (PKC) responsible for hyperphosphorylation. Culturing of LCLs and cell lines in the presence of suitable inhibitors (staurosporine, Wortmannin, Bisindolylmaleimid I) at concentrations as indicated below and followed by IEF analysis identifies the PKCzeta isoform as the active kinase (summarized in FIG. 16). This was verified by using highly specific PKCzeta pseudosubstrate as inhibitor (FIG. 16d). […] (FIG. 18).

[2] = system: paraproteins of serum pool #1 (MGUS/MM patients' sera); experiment: Serum profiling on high density protein arrays (paraprotein screening of hEx1 human fetal brain macroarray); format: binding; design: key: Paraprotein-binding quality/strength are ++, + and ±.; Paraprotein-binding quality/strength are ++, + and ±.; Paraprotein-binding quality/strength are ++, + and ±; conditions: serum pool #1 (n=114), each serum diluted 1:10^8
Procedure: Screening analyses were performed on hEx1 high-density protein expression cDNA libraries, created in Hans Lehrach's laboratory at the Max Planck Institute for Molecular Genetics in Berlin (Germany) and obtained from the Reference Center of the German Human Genome Project (RZPD) (Bussow et al, 1998). These high-density filter membranes display proteins that were expressed from a modified pQE protein expression vector (Qiagen). This vector featured a hexahistidine tag, a T5 promoter and two lac operator sequences, which allowed repression during the growth phase by overexpression of the Lac repressor protein, and subsequent induction of protein expression with isopropyl-beta-D-thiogalactopyranoside (IPTG).
High density protein arrays of the protein expression set of the hEx1 library were obtained from the German Resource Center for Genome Research (RZPD) and provided by Dr. Mahlknecht from our department. They consist of 37,200 independent clones derived from a human fetal brain cDNA expression library and were used for autoantibody detection. For serum profiling, the filters were blocked in 10% (w/v) non-fat, dry milk powder in TBST (TBS, 0.1% (v/v) Tween 20) at 4° C. overnight, washed twice in TBST, and incubated for 1 h with serum pool #1 at a dilution of 1:10^8 for each serum. Following three 30-min TBST washes and subsequent incubation with the secondary antibody (goat anti-human IgG biotinylated, Dianova, diluted 1:2.500) and Strep-PDX (1:15.000) in 2% (w/v) Milk/TBST, the filters were washed three times for 30 min in TBST. This was followed by detection using Pharmacia ECL system. Positive signals were localized according to the manufacturer's protocol. Corresponding clones were obtained from RZPD.
In this study we screened a human high-density protein array containing 37,200 independent recombinant proteins derived from a human fetal brain expression library with sera obtained from patients with monoclonal gammopathy of undetermined significance (MGUS) and multiple myeloma (MM).
The signal pattern obtained from the screening with the paraprotein pools at a dilution of 1:10^8 were compared with the patterns obtained from screening with the control sera from clinically healthy donors and to background incubations. […] 5′- and 3′-tag sequencing of these clones was performed, and their sequences were used for BLAST searches against public databases at NCBI.
Using serum pool #1 (paraprotein type: 15 IgA, 88 IgG, 11 oligoclonal, n=114) we identified 14 putative paraprotein targets on the human protein filter array (FIG. 1, Tab. 1). […] Sequence searches and comparisons using the in-frame sequences identified five known proteins and one unknown gene product derived from chromosome 8.

Molecule | effect on hyperphosphorylation of paratarg [1] | Signal-quality (paraprotein-binding quality/strength) [2] | also measured
CN[C@@H]1C[C@H]2O[C@@](C)([C@@H]1OC)n1c3ccccc3c3c4c(c5c6ccccc6n2c5c31)C(=O)NC4 [staurosporine] | inhibited | – | –
CN(C)CCCn1cc(C2=C(c3c[nH]c4ccccc34)C(=O)NC2=O)c2ccccc21 [BIM_I, Bisindolylmaleimid I] | – | – | kinase identified by inhibition of paratarg hyperphosphorylation ([1]; LCLs, BIM_I at 6 μM): clearly identified PKCzeta as the kinase responsible
O=c1oc2c(O)c(O)cc3c(=O)oc4c(O)c(O)cc1c4c23 [ellagic acid] | inhibited | – | –
MPMGp800J11592: RZPD clone, NM_001294.1 (protein, UniProt O96005 2-669, looked up) Putative lipid scramblase …: AAAQEADGARSAVVAAGGGSSGQVTSNGSIGRDPPAETQPQNPPAQPAPNAWQVIKGVLFRIFIIWAISSWFRRGPAPQDQAGPGGAPRVASRNLFPKDTLMNLHVYISEHEHFTDFNATSALFWEQHDLVYGDWTSGENSDGCYEHFAELDIPQSVQQNGSIYIHVYFTKSGFHPDPRQKALYRRLATVHMSRMINKYKRRRFQKTKNLLTGETEADPEMIKRAEDYGPVEVISHWHPNITINIVDDHTPWVKGSVPPPLDQYVKFDAVSGDYYPIIYFNDYWNLQKDYYPINESLASLPLRVSFCPLSLWRWQLYAAQSTKSPWNFLGDELYEQSDEEQDSVKVALLETNPYLLALTIIVSIVHSVFEFLAFKNDIQFWNSRQSLEGLSVRSVFFGVFQSFVVLLYILDNETNFVVQVSVFIGVLIDLWKITKVMDVRLDREHRVAGIFPRLSFKDKSTYIESSTKVYDDMAFRYLSWILFPLLGCYAVYSLLYLEHKGWYSWVLSMLYGFLLTFGFITMTPQLFINYKLKSVAHLPWRMLTYKALNTFIDDLFAFVIKMPVMYRIGCLRDDVVFFIYLYQRWIYRVDPTRVNEFGMSGEDPTAAAPVAEVPTAAGALTPTPAPTTTTATREEASTSLPTKPTQGASSASEPQEAPPKPAEDKKKD | – | ± | –
MPMGp800B22602: RZPD clone, NM_006762.1 (protein) MDPRLSTVRQTCCCFNVRIATTALAIYHVIMSVLLFIEHSVEVAHGKASCKLSQMGYLRIADLISSFLLITMLFIISLSLLIGVVKNREKYLLPFLSLQIMDYLLCLLTLLGSYIELPAYLKLASRSRASSSKFPLMTLQLLDFCLSILTLCSSYMEVPTYLNFKSMNHMNYLPSQEDMPHNQFIKMMIIFSIAFITVLIFKVYMFKCVWRCYRLIKCMNSVEEKRNSKMLQKVVLPSYEEALSLPSKTPEGGPAPPPYSEV | – | ++ | –
